Experiment: recombinant barcode read abundance after kanamycin selection (control-corrected) (log10(CPM+1)); higher = more efficient recombination; sequences stand for … in AGTGCAGAGAAAATCGGCCAGTTTTCTCTGCCTGCAGTCCGCATGCCGT…ATTTATGCAGCGGACTGCCTTTCTCCCAAAGTGATAAACCGGACAGTATCATGGACCGGTTTTCCCGGTAATCCGTATTTGCAAGGTTGGTTTCACT; site = the 11-nt target
Summary of the method: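 This pooled E. coli screen matched targets with IS621 bridge RNA target-binding loops. Plating was done in duplicate on chloramphenicol/ampicillin LB agar as a control and on chloramphenicol/ampicillin/kanamycin plus 0.1 mM IPTG. Recombination efficiency reflects barcode counts at recombinant junctions as counts per million, averaged and control-corrected. The figures are log10(CPM+1).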

Row | Sequence | recombinant barcode read abundance (log10)
1 | TAAGAATCCTGGGTTCTAACCTGTTGCCTAG [TAAGAATCTAG_LTGcore_CC_RTGcore_CT] (site TAAGAATCTAG) (LTG core: CC, RTG core: CT) | 0.193
2 | TAAGAATCTTGGGTTCTAACCTGTTGCCTCG [TAAGAATCTAG_LTGcore_CT_RTGcore_CG] (site TAAGAATCTAG) (LTG core: CT, RTG core: CG) | 1.61
3 | TAAGAATCTTGGGTTCTAACCTGTTGCCTCT [TAAGAATCTAG_LTGcore_CT_RTGcore_AG] (site TAAGAATCTAG) (LTG core: CT, RTG core: AG) | 0.422
4 | TAAGAATCTTGGGTTCTAACCTGTTGCCTGA [TAAGAATCTAG_LTGcore_CT_RTGcore_TC] (site TAAGAATCTAG) (LTG core: CT, RTG core: TC) | 0.145
5 | TAAGAATCTTGGGTTCTAACCTGTTGCCTTT [TAAGAATCTAG_LTGcore_CT_RTGcore_AA] (site TAAGAATCTAG) (LTG core: CT, RTG core: AA) | 0.421
6 | TAGAGGGAATGGGTTCTAACCTGTTGCGGTT [TAGAGGGCTCC_LTGcore_AA_RTGcore_AA] (site TAGAGGGCTCC) (LTG core: AA, RTG core: AA) | 0.0221
7 | TAGAGGGACTGGGTTCTAACCTGTTGCGGGT [TAGAGGGCTCC_LTGcore_AC_RTGcore_AC] (site TAGAGGGCTCC) (LTG core: AC, RTG core: AC) | 0.247
8 | TAGAGGGCATGGGTTCTAACCTGTTGCGGTG [TAGAGGGCTCC_LTGcore_CA_RTGcore_CA] (site TAGAGGGCTCC) (LTG core: CA, RTG core: CA) | 0.23
9 | TAGAGGGCTTGGGTTCTAACCTGTTGCGGAG [TAGAGGGCTCC_LTGcore_CT_RTGcore_CT] (site TAGAGGGCTCC) (LTG core: CT, RTG core: CT) | 2.86
10 | TAGAGGGCTTGGGTTCTAACCTGTTGCGGCC [TAGAGGGCTCC_LTGcore_CT_RTGcore_GG] (site TAGAGGGCTCC) (LTG core: CT, RTG core: GG) | 0.0898
11 | TAGAGGGCTTGGGTTCTAACCTGTTGCGGGA [TAGAGGGCTCC_LTGcore_CT_RTGcore_TC] (site TAGAGGGCTCC) (LTG core: CT, RTG core: TC) | 0.378
12 | TAGAGGGCTTGGGTTCTAACCTGTTGCGGGT [TAGAGGGCTCC_LTGcore_CT_RTGcore_AC] (site TAGAGGGCTCC) (LTG core: CT, RTG core: AC) | 0.122
13 | TAGAGGGCTTGGGTTCTAACCTGTTGCGGTC [TAGAGGGCTCC_LTGcore_CT_RTGcore_GA] (site TAGAGGGCTCC) (LTG core: CT, RTG core: GA) | 0.158
14 | TAGAGGGCTTGGGTTCTAACCTGTTGCGGTT [TAGAGGGCTCC_LTGcore_CT_RTGcore_AA] (site TAGAGGGCTCC) (LTG core: CT, RTG core: AA) | 0.0916
15 | TAGAGGGGATGGGTTCTAACCTGTTGCGGAG [TAGAGGGCTCC_LTGcore_GA_RTGcore_CT] (site TAGAGGGCTCC) (LTG core: GA, RTG core: CT) | 0.441
16 | TCGCGACCATGGGTTCTAACCTGTTGCCGAG [TCGCGACCTCG_LTGcore_CA_RTGcore_CT] (site TCGCGACCTCG) (LTG core: CA, RTG core: CT) | 0.0739
17 | TCGCGACCTTGGGTTCTAACCTGTTGCCGCG [TCGCGACCTCG_LTGcore_CT_RTGcore_CG] (site TCGCGACCTCG) (LTG core: CT, RTG core: CG) | 0.436

Row | Sequence | recombinant barcode read abundance (log10)
18 | TCGCGACCTTGGGTTCTAACCTGTTGCCGGA [TCGCGACCTCG_LTGcore_CT_RTGcore_TC] (site TCGCGACCTCG) (LTG core: CT, RTG core: TC) | 0.26
19 | TCGCGACCTTGGGTTCTAACCTGTTGCCGTA [TCGCGACCTCG_LTGcore_CT_RTGcore_TA] (site TCGCGACCTCG) (LTG core: CT, RTG core: TA) | 0.0883
20 | TCGCGACTCTGGGTTCTAACCTGTTGCCGAG [TCGCGACCTCG_LTGcore_TC_RTGcore_CT] (site TCGCGACCTCG) (LTG core: TC, RTG core: CT) | 0.0502
21 | TCGCGACTCTGGGTTCTAACCTGTTGCCGGA [TCGCGACCTCG_LTGcore_TC_RTGcore_TC] (site TCGCGACCTCG) (LTG core: TC, RTG core: TC) | 0.0969
22 | TCGCGACTTTGGGTTCTAACCTGTTGCCGAA [TCGCGACCTCG_LTGcore_TT_RTGcore_TT] (site TCGCGACCTCG) (LTG core: TT, RTG core: TT) | 0
23 | TCTACCCAATGGGTTCTAACCTGTTGCTGAG [TCTACCCCTCA_LTGcore_AA_RTGcore_CT] (site TCTACCCCTCA) (LTG core: AA, RTG core: CT) | 0.0508
24 | TCTACCCACTGGGTTCTAACCTGTTGCTGAG [TCTACCCCTCA_LTGcore_AC_RTGcore_CT] (site TCTACCCCTCA) (LTG core: AC, RTG core: CT) | 0.0555
25 | TCTACCCAGTGGGTTCTAACCTGTTGCTGAG [TCTACCCCTCA_LTGcore_AG_RTGcore_CT] (site TCTACCCCTCA) (LTG core: AG, RTG core: CT) | 0.467
26 | TCTACCCCATGGGTTCTAACCTGTTGCTGAG [TCTACCCCTCA_LTGcore_CA_RTGcore_CT] (site TCTACCCCTCA) (LTG core: CA, RTG core: CT) | 0.806
27 | TCTACCCCTTGGGTTCTAACCTGTTGCTGCC [TCTACCCCTCA_LTGcore_CT_RTGcore_GG] (site TCTACCCCTCA) (LTG core: CT, RTG core: GG) | 0.0951
28 | TCTACCCGATGGGTTCTAACCTGTTGCTGAG [TCTACCCCTCA_LTGcore_GA_RTGcore_CT] (site TCTACCCCTCA) (LTG core: GA, RTG core: CT) | 0.208
29 | TCTACCCGGTGGGTTCTAACCTGTTGCTGCC [TCTACCCCTCA_LTGcore_GG_RTGcore_GG] (site TCTACCCCTCA) (LTG core: GG, RTG core: GG) | 0.108
30 | TCTACCCTCTGGGTTCTAACCTGTTGCTGAG [TCTACCCCTCA_LTGcore_TC_RTGcore_CT] (site TCTACCCCTCA) (LTG core: TC, RTG core: CT) | 0.0968
31 | TCTACCCTCTGGGTTCTAACCTGTTGCTGGA [TCTACCCCTCA_LTGcore_TC_RTGcore_TC] (site TCTACCCCTCA) (LTG core: TC, RTG core: TC) | 0.032
32 | TGATACCACTGGGTTCTAACCTGTTGCGTGT [TGATACCCTAC_LTGcore_AC_RTGcore_AC] (site TGATACCCTAC) (LTG core: AC, RTG core: AC) | 0.136
33 | TGATACCCATGGGTTCTAACCTGTTGCGTAG [TGATACCCTAC_LTGcore_CA_RTGcore_CT] (site TGATACCCTAC) (LTG core: CA, RTG core: CT) | 0.328
34 | TGATACCCCTGGGTTCTAACCTGTTGCGTAG [TGATACCCTAC_LTGcore_CC_RTGcore_CT] (site TGATACCCTAC) (LTG core: CC, RTG core: CT) | 0.566

From the supplement of paper PMC11208160
